Columns and labels:
ALOMY [1] = test: greenhouse pre-emergence herbicidal test; type: in vivo, Alopercurus myosuroides; conditions: pre-emergence method, application rate 500 g/ha, scale from 0 to 100
Excerpt: The seeds of the test plants were sown separately for each species. For the pre-emergence treatment, the active ingredients, which had been suspended or emulsified in water, were applied directly after sowing by means of finely distributing nozzles. The containers were irrigated gently to promote germination and growth and subsequently covered with transparent plastic hoods until the plants had rooted. This cover caused uniform germination of the test plants, unless this had been impaired by the active ingredients. Depending on the species, the plants were kept at 10-25° C. or 20-35° C., respectively. The test period extended over 2 to 4 weeks. During this time, the plants were tended, and their response to the individual treatments was evaluated. Evaluation was carried out using a scale from 0 to 100. 100 means no emergence of the plants, or complete destruction of at least the aerial moieties, and 0 means no damage, or normal course of growth. […] The plants used in the greenhouse experiments were of the following species: [table]

ECHCG [2] = test: greenhouse pre-emergence herbicidal test; type: in vivo, Echinocloa crus-galli; conditions: pre-emergence method, scale from 0 to 100
In short: (§1)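 Species-dependent temperatures of 10-25° C. or 20-35° C. were maintained for a 2 to 4 week test after pre-emergence nozzle application of compounds dispersed in water. Efficacy was scored 0-100, with 100 denoting no emergence or total aerial destruction.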

APESV = test: greenhouse pre-emergence herbicidal test; type: in vivo, Apera spica-venti; conditions: pre-emergence method, scale from 0 to 100
In short: as §1

ALOMY [3] = test: greenhouse post-emergence herbicidal test; type: in vivo, Alopercurus myosuroides; conditions: post-emergence method, scale from 0 to 100
In short: (§2)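 Post-emergence; plants at 3–15 cm, treated with aqueous suspension/emulsion of compound. 10–25 °C or 20–35 °C per species, 2–4 wk. Score 0 (no damage) to 100 (aerial parts destroyed).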

ECHCG [4] = test: greenhouse post-emergence herbicidal test; type: in vivo, Echinocloa crus-galli; conditions: post-emergence method, scale from 0 to 100
In short: as §2

ABUTH = test: greenhouse post-emergence herbicidal test; type: in vivo, Abutilon theophrasti; conditions: post-emergence method, scale from 0 to 100
Excerpt: (§3) The seeds of the test plants were sown separately for each species. For the post-emergence treatment, the test plants were first grown to a height of 3 to 15 cm, depending on the plant habit, and only then treated with the active ingredients which had been suspended or emulsified in water. For this purpose, the test plants were either sown directly and grown in the same containers, or they were first grown separately as seedlings and transplanted into the test containers a few days prior to treatment. Depending on the species, the plants were kept at 10-25° C. or 20-35° C., respectively. The test period extended over 2 to 4 weeks. During this time, the plants were tended, and their response to the individual treatments was evaluated. Evaluation was carried out using a scale from 0 to 100. 100 means no emergence of the plants, or complete destruction of at least the aerial moieties, and 0 means no damage, or normal course of growth. […] The plants used in the greenhouse experiments were of the following species: [table]

AMARE = test: greenhouse post-emergence herbicidal test; type: in vivo, Amaranthus retroflexus; conditions: post-emergence method, scale from 0 to 100
Excerpt: as §3

POLCO = test: greenhouse post-emergence herbicidal test; type: in vivo, Polygonum convolvulus; conditions: post-emergence method, application rate 1000 g/ha, scale from 0 to 100
Excerpt: as §3

SMILES	herbicidal activity against ALOMY (ALOMY [1])	herbicidal activity against ECHCG (ECHCG [2]; application rate 500 g/ha)	herbicidal activity against APESV (APESV; application rate 500 g/ha)	herbicidal activity against ALOMY (ALOMY [3]; application rate 500 g/ha)	herbicidal activity against APESV (APESV; application rate 1000 g/ha)	herbicidal activity against ABUTH (ABUTH; application rate 1000 g/ha)	herbicidal activity against ECHCG (ECHCG [4]; application rate 1000 g/ha)	also measured
COC(=O)c1nc(C2CC2)ncc1-c1cc(C)c(F)cc1C [example 230]	good (A good herbicidal activity is given at values of at least 70)	very good (a very good herbicidal activity is given at values of at least 85)	very good (a very good herbicidal activity is given at values of at least 85)	good (A good herbicidal activity is given at values of at least 70)	–	–	–	herbicidal activity against ECHCG (ECHCG [4]; application rate 500 g/ha): very good (a very good herbicidal activity is given at values of at least 85)
O=C(O)c1nc(C2CC2)ncc1-c1cccc(F)c1Cl [example 150]	–	–	–	–	very good (a very good herbicidal activity is given at values of at least 85)	very good (a very good herbicidal activity is given at values of at least 85)	–	herbicidal activity against ECHCG (ECHCG [2]; application rate 1000 g/ha): very good (a very good herbicidal activity is given at values of at least 85); herbicidal activity against ALOMY (ALOMY [3]; application rate 1000 g/ha): very good (a very good herbicidal activity is given at values of at least 85)
O=C(O)c1nc(C2CC2)ncc1-c1ccc(F)cc1Cl [example 146]	very good (a very good herbicidal activity is given at values of at least 85)	very good (a very good herbicidal activity is given at values of at least 85)	very good (a very good herbicidal activity is given at values of at least 85)	very good (a very good herbicidal activity is given at values of at least 85)	–	–	–	–
Cc1cccc(C)c1-c1cnc(C2CC2)nc1C(=O)O [example 162]	very good (a very good herbicidal activity is given at values of at least 85)	very good (a very good herbicidal activity is given at values of at least 85)	very good (a very good herbicidal activity is given at values of at least 85)	very good (a very good herbicidal activity is given at values of at least 85)	–	–	–	herbicidal activity against ECHCG (ECHCG [4]; application rate 500 g/ha): very good (a very good herbicidal activity is given at values of at least 85)
COC(=O)c1nc(C2CC2)ncc1-c1cc(F)ccc1Cl [example 203]	very good (a very good herbicidal activity is given at values of at least 85)	very good (a very good herbicidal activity is given at values of at least 85)	very good (a very good herbicidal activity is given at values of at least 85)	good (A good herbicidal activity is given at values of at least 70)	–	–	–	herbicidal activity against ECHCG (ECHCG [4]; application rate 500 g/ha): very good (a very good herbicidal activity is given at values of at least 85)
COC(=O)c1nc(C2CC2)ncc1-c1ccccc1Br [example 213]	very good (a very good herbicidal activity is given at values of at least 85)	very good (a very good herbicidal activity is given at values of at least 85)	very good (a very good herbicidal activity is given at values of at least 85)	good (A good herbicidal activity is given at values of at least 70)	–	–	–	herbicidal activity against ECHCG (ECHCG [4]; application rate 500 g/ha): good (A good herbicidal activity is given at values of at least 70)
O=C(O)c1nc(C2CC2)ncc1-c1cc(F)ccc1Cl [example 142]	very good (a very good herbicidal activity is given at values of at least 85)	very good (a very good herbicidal activity is given at values of at least 85)	very good (a very good herbicidal activity is given at values of at least 85)	very good (a very good herbicidal activity is given at values of at least 85)	–	–	–	herbicidal activity against ECHCG (ECHCG [4]; application rate 500 g/ha): very good (a very good herbicidal activity is given at values of at least 85)
COC(=O)c1nc(C2CC2)ncc1-c1ccc(F)cc1Cl [example 207]	very good (a very good herbicidal activity is given at values of at least 85)	very good (a very good herbicidal activity is given at values of at least 85)	very good (a very good herbicidal activity is given at values of at least 85)	good (A good herbicidal activity is given at values of at least 70)	–	–	–	–
COc1ncc(-c2cc(C)ccc2C)c(C(=O)O)n1 [example 54]	–	–	–	–	very good (a very good herbicidal activity is given at values of at least 85)	good (A good herbicidal activity is given at values of at least 70)	–	herbicidal activity against AMARE (AMARE; application rate 1000 g/ha): very good (a very good herbicidal activity is given at values of at least 85); herbicidal activity against ECHCG (ECHCG [2]; application rate 1000 g/ha): very good (a very good herbicidal activity is given at values of at least 85); herbicidal activity against ALOMY (ALOMY [3]; application rate 1000 g/ha): very good (a very good herbicidal activity is given at values of at least 85)
Cc1ccccc1-c1cnc(C2CCC2)nc1C(=O)O [example 263]	–	–	–	–	good (A good herbicidal activity is given at values of at least 70)	very good (a very good herbicidal activity is given at values of at least 85)	very good (a very good herbicidal activity is given at values of at least 85)	–
CCC(C)c1ncc(-c2ccccc2C)c(C(=O)O)n1 (centres unmarked) [example 41]	–	–	–	–	very good (a very good herbicidal activity is given at values of at least 85)	very good (a very good herbicidal activity is given at values of at least 85)	good (A good herbicidal activity is given at values of at least 70)	–
CSc1ncc(-c2ccc(F)cc2C)c(C(=O)O)n1 [example 94]	–	–	–	–	–	good (A good herbicidal activity is given at values of at least 70)	very good (a very good herbicidal activity is given at values of at least 85)	herbicidal activity against POLCO (POLCO): very good (a very good herbicidal activity is given at values of at least 85)
COc1cc(C)c(-c2cnc(C3CC3)nc2C(=O)O)cc1C [example 169]	–	–	–	–	very good (a very good herbicidal activity is given at values of at least 85)	very good (a very good herbicidal activity is given at values of at least 85)	good (A good herbicidal activity is given at values of at least 70)	–
CC(C)c1ncc(-c2ccccc2Cl)c(C(=O)O)n1 [example 32]	–	–	–	–	very good (a very good herbicidal activity is given at values of at least 85)	very good (a very good herbicidal activity is given at values of at least 85)	–	herbicidal activity against AMARE (AMARE; application rate 1000 g/ha): good (A good herbicidal activity is given at values of at least 70); herbicidal activity against ECHCG (ECHCG [2]; application rate 1000 g/ha): very good (a very good herbicidal activity is given at values of at least 85)
Cc1ccccc1-c1cnc(CC(C)C)nc1C(=O)O [example 40]	–	–	–	–	good (A good herbicidal activity is given at values of at least 70)	very good (a very good herbicidal activity is given at values of at least 85)	good (A good herbicidal activity is given at values of at least 70)	–
CSc1ncc(-c2cccc(Cl)c2Cl)c(C(=O)O)n1 [example 90]	–	–	–	–	–	–	–	herbicidal activity against AMARE (AMARE; application rate 2000 g/ha): very good (a very good herbicidal activity is given at values of at least 85); herbicidal activity against ABUTH (ABUTH; application rate 2000 g/ha): good (A good herbicidal activity is given at values of at least 70); herbicidal activity against ECHCG (ECHCG [4]; application rate 2000 g/ha): very good (a very good herbicidal activity is given at values of at least 85)
COC(=O)c1nc(C2CC2)ncc1-c1cc(C)c(OC)cc1C [example 232]	–	–	–	–	very good (a very good herbicidal activity is given at values of at least 85)	very good (a very good herbicidal activity is given at values of at least 85)	very good (a very good herbicidal activity is given at values of at least 85)	herbicidal activity against ECHCG (ECHCG [2]; application rate 1000 g/ha): very good (a very good herbicidal activity is given at values of at least 85)
